Experimental data reported in US11866430B2, “Naphthyridinone compounds useful as T cell activators” (priority 2018, dated 2024).
Read-outs that look alike come from different tables or passages of the source.

How the values were obtained:
[1] = tested on: pre-activated CD4 T cells and Raji cells; test: Raji CD4 T Cell IL2 Assay; assay type: cell-based
human DGKζ [2] = biological target: T1, human DGKζ (Homo sapiens (Human), UniProt Q13574); test: DGKζ assay (detergent/lipid micelle substrate); assay type: biochemical
T1 sequence (Q13574 other isoform, or with tags, fused parts or gaps): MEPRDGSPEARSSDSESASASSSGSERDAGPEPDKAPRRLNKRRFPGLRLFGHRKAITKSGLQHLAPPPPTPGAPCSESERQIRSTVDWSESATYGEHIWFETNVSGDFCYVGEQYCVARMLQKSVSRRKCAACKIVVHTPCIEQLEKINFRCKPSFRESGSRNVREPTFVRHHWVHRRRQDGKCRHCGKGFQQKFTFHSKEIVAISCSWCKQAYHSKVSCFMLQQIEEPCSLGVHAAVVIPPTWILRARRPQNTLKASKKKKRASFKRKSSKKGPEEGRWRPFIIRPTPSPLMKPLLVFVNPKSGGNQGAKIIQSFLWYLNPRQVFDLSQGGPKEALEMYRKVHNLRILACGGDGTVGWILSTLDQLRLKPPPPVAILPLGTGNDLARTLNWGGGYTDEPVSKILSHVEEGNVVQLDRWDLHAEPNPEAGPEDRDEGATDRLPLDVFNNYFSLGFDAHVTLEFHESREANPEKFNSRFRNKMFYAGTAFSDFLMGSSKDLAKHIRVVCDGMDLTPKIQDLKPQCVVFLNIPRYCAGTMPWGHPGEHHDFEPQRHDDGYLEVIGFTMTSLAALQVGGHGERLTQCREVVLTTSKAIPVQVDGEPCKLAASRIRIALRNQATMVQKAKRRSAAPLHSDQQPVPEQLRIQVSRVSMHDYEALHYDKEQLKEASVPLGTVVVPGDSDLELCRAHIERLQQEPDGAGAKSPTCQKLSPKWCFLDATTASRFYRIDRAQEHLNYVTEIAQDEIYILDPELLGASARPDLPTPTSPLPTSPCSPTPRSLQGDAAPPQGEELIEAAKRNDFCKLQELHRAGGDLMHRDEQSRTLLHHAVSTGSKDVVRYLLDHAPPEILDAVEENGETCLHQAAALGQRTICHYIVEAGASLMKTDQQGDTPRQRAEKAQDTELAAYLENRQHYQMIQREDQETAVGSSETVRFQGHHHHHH
Method in brief: (§1)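 Full-length human DGKα or DGKζ (C-terminal His tag, Sf9-expressed; 20 nM 4× stock) was preincubated 10 min at room temperature with PS/DAG octyl glucoside micelles in MOPS pH 7.5 buffer with MgCl2, CaCl2 and DTT. It was then started with ATP (300 uM addition) and run for 1 hr, with ADP-Glo luminescence read-out.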

human DGKα [3] = biological target: T2, human DGKα (Homo sapiens (Human), UniProt P23743); test: biochemical; details: detergent/lipid micelle substrate; read-out: DGKα IC50
T2 sequence (P23743 other isoform, or with tags, fused parts or gaps): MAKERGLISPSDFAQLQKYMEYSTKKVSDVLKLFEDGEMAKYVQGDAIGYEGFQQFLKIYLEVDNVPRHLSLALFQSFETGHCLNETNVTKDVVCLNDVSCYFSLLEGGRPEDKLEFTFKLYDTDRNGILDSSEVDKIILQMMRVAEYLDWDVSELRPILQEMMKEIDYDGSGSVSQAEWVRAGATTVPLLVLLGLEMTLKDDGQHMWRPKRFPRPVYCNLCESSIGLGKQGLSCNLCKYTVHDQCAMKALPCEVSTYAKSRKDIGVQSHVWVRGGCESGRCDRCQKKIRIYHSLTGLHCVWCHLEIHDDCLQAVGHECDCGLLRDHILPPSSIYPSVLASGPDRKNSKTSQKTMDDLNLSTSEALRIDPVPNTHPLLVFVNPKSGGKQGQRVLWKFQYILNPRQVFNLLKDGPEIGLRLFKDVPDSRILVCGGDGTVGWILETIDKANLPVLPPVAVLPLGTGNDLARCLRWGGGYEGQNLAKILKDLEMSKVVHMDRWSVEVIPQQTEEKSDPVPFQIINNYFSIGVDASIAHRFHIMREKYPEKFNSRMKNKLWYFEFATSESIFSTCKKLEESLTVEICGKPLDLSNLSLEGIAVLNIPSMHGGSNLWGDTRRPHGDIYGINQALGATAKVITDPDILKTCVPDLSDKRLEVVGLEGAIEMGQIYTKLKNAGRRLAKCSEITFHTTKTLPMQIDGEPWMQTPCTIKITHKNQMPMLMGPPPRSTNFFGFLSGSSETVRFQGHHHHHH
Method in brief: as §1

human DGKα [4] = biological target: T2, human DGKα; test: DGKα LIPGLO assay (extruded liposome substrate); assay type: biochemical
Method in brief: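 Human full-length DGKα, His-tagged and produced in Sf9 cells, assayed at 20 nM (4× stock) on extruded liposomes of PS, 0.25 mM DAG and 2.75 mM PC, preincubated 10 min. Reaction started with 300 μM ATP (stock) and ran 1 h in MOPS pH 7.5/MgCl2/CaCl2/DTT buffer.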

human DGKζ [5] = biological target: T1, human DGKζ; test: DGKζ LIPGLO assay (extruded liposome substrate); assay type: biochemical
Method in brief: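 Sf9-derived DGKζ was premixed 10 min with PC/DAG/PS liposomes (100 nm extruded) in MOPS pH 7.5 buffer containing NaCl, MgCl2, CaCl2 and DTT.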

[6] = detergent/lipid micelle substrate; read-out: DGKζ IC50
[7] = extruded liposome substrate, read-out: DGKζ LIPGLO IC50

| SMILES | IC50 [1] [nM] | IC50 (human DGKζ [2]; [6]) [nM] | IC50 (human DGKα [3]) [nM] | IC50 (human DGKα [4]) [nM] | IC50 (human DGKζ [5]; [7]) [nM] | IC50 ([1]; Homo sapiens, Raji) [nM] | IC50 (human DGKζ [2]; read-out: DGKζ IC50; detergent/lipid micelle substrate) [nM] | IC50 (human DGKζ [5]; DGKζ LIPGLO IC50, extruded liposome substrate) [nM] |
| --- | --- | --- | --- | --- | --- | --- | --- | --- |
| C#CCn1c(=O)c([N+](=O)[O-])c(N2CCN(C(c3ccc(F)cc3)c3ccc(F)cc3OC)CC2)c2nc(C#N)ccc21 (single isomer, unassigned) [Example 128, 8-(4-((4-fluoro-2-methoxyphenyl)(4-fluorophenyl)methyl)piperazin-1-yl)-7-nitro-6-oxo-5-(prop-2-yn-1-yl)-5,6-dihydro-1,5-naphthyridine-2-carbonitrile] | 100 | 1500 | 21000 | 18000 | 48 |  |  |  |
| Cn1c(=O)c(C#N)c(N2CCN(Cc3ccc(Cl)cc3O)CC2)c2nc(C#N)ccc21 [Example 269, 8-{4-[(4-chloro-2-hydroxyphenyl)methyl]piperazin-1-yl}-5-methyl-6-oxo-5,6-dihydro-1,5-naphthyridine-2,7-dicarbonitrile] |  | 26000 | 52 | 210 | 2800 | 57 |  |  |
| Cn1c(=O)c(C#N)c(N2CCN(Cc3ccccc3Cl)CC2)c2nc(Br)ccc21 [Example 300, 6-bromo-4-{4-[(2-chlorophenyl)methyl]piperazin-1-yl}-1-methyl-2-oxo-1,2-dihydro-1,5-naphthyridine-3-carbonitrile] |  | > 240000 | 2000 | 24000 | 98000 | 160 |  |  |
| Cn1c(=O)c(C#N)c(N2CCN(Cc3cc(C#N)ccc3F)CC2)c2nc(Cl)ccc21 [Example 340, 6-chloro-4-{4-[(5-cyano-2-fluoro-phenyl)methyl]piperazin-1-yl}-1-methyl-2-oxo-1,2-dihydro-1,5-naphthyridine-3-carbonitrile] |  | > 240000 | 4200 | 3400 | 17000 | 690 |  |  |
| C#CCn1c(=O)c([N+](=O)[O-])c(N2CCN(C(c3ccc(F)cc3)c3ccc(F)cc3)CC2)c2nc(C#N)ccc21 [Example 118, 8-(4-(bis(4-fluorophenyl)methyl)piperazin-1-yl)-7-nitro-6-oxo-5-(prop-2-yn-1-yl)-5,6-dihydro-1,5-naphthyridine-2-carbonitrile] |  | 230 | 4200 | 1300 | 61 | 18 |  |  |
| CC(c1ccc(F)cc1)N1CCN(c2c(C#N)c(=O)n(CC3CC3)c3ccc(Br)nc23)CC1 (single isomer, unassigned) [Example 164, 6-bromo-1-(cyclopropylmethyl)-4-(4-(1-(4-fluorophenyl)ethyl)piperazin-1-yl)-2-oxo-1,2-dihydro-1,5-naphthyridine-3-carbonitrile] | 2600 |  | > 240000 | 81000 |  |  | > 240000 | 59000 |
| CCC(c1ccc(F)cc1)N1CCN(c2c(C#N)c(=O)n(CC#N)c3ccc(Br)nc23)CC1 (stereo not drawn) [Example 155, 6-bromo-1-(cyanomethyl)-4-(4-(1-(4-fluorophenyl)propyl)piperazin-1-yl)-2-oxo-1,2-dihydro-1,5-naphthyridine-3-carbonitrile] |  | 230000 | 24000 | 71000 | 63000 | 1600 |  |  |
| Cc1cccc(CN2CCN(c3c(C#N)c(=O)n(C)c4ccc(Cl)nc34)CC2)c1F [Example 281, 6-chloro-4-{4-[(2-fluoro-3-methylphenyl)methyl]piperazin-1-yl}-1-methyl-2-oxo-1,2-dihydro-1,5-naphthyridine-3-carbonitrile] |  | 49000 | 390 | 2000 | 9900 | 93 |  |  |
| COc1cccc(F)c1CN1CCN(c2c(C#N)c(=O)n(C)c3ccc(Cl)nc23)CC1 [Example 335, 6-chloro-4-{4-[(2-fluor-6-methoxyphenyl)methyl]piperazin-1-yl}-1-methyl-2-oxo-1,2-dihydro-1,5-naphthyridine-3-carbonitrile] |  | > 240000 | 2700 | 1900 | 18000 | 540 |  |  |
| Cc1ccc2c(n1)c(N1CCN(Cc3ccc(F)cc3O)CC1)c(C#N)c(=O)n2C [Example 194, 4-(4-(4-fluoro-2-hydroxybenzyl)piperazin-1-yl)-1,6-dimethyl-2-oxo-1,2-dihydro-1,5-naphthyridine-3-carbonitrile] |  | 62000 | 76 | 180 | 8300 | 440 |  |  |
| Cn1c(=O)c(C#N)c(N2CCN(C(c3ccccc3)c3ccccc3)CC2)c2ncccc21 [Example 196, 4-(4-benzhydrylpiperazin-1-yl)-1-methyl-2-oxo-1,2-dihydro-1,5-naphthyridine-3-carbonitrile] |  | > 240000 | 4000 | 2700 | 43000 | 2100 |  |  |
| Cn1c(=O)c(C#N)c(N2CCN(Cc3cccc(F)c3O)CC2)c2nc(Br)ccc21 [Example 304, 6-bromo-4-{4-[(3-fluoro-2-hydroxyphenyl)methyl]piperazin-1-yl}-1-methyl-2-oxo-1,2-dihydro-1,5-naphthyridine-3-carbonitrile] |  | 68000 | 330 | 610 | 5800 | 190 |  |  |
| Cn1c(=O)c(C#N)c(N2CCN(C(c3ccc(F)cc3)c3ccc(F)cc3)CC2)c2nc(C#N)ccc21 [Example 217, 8-(4-(bis(4-fluorophenyl)methyl)piperazin-1-yl)-5-methy-6-oxo-5,6-dihydro-1,5-naphthyridine-2,7-dicarbonitrile] |  | 4500 | 2300 | 1300 | 1400 | 67 |  |  |
| Cc1ccc2c(n1)c(N1CCN(C(c3ccc(F)cc3)c3ccc(F)cc3)CC1)c(Cl)c(=O)n2C [Example 233, 4-(4-(bis(4-fluorophenyl)methyl)piperazin-1-yl)-3-chloro-1,6-dimethyl-1,5-naphthyridin-2(1H)-one] |  | > 240000 | 8400 | 3000 | 6600 | 480 |  |  |
| Cn1c(=O)c(C#N)c(N2CCN(Cc3ccccc3Cl)CC2)c2nc(Cl)ccc21 [Example 272, 6-chloro-4-{4-[(2-chlorophenyl)methyl]piperazin-1-yl}-1-methyl-2-oxo-1,2-dihydro-1,5-naphthyridine-3-carbonitrile] |  | > 240000 | 1500 | 2300 | 10000 | 64 |  |  |
| Cc1ccc2c(n1)c(N1CCN(Cc3cc(Br)ccc3O)CC1)c(C#N)c(=O)n2C [Example 277, 4-{4-[(5-bromo-2-hydroxyphenyl)methyl]piperazin-1-yl}-1,6-dimethyl-2-oxo-1,2-dihydro-1,5-naphthyridine-3-carbonitrile] |  | 45000 | 750 | 1700 | 13000 | 79 |  |  |
| Cc1ccc(O)c(CN2CCN(c3c(C#N)c(=O)n(C)c4ccc(Cl)nc34)CC2)c1 [Example 283, 6-chloro-4-{4-[(2-hydroxy-5-methylphenyl)methyl]piperazin-1-yl}-1-methyl-2-oxo-1,2-dihydro-1,5-naphthyridine-3-carbonitrile] |  | 27000 | 120 | 210 | 3000 | 94 |  |  |
| CCC(c1ccc(F)cc1)N1CCN(c2c(C#N)c(=O)n(C)c3ccc(Br)nc23)CC1 (single isomer, unassigned) [Example 27, 6-bromo-4-{4-[1-(4-fluorophenyl)propyl]piperazin-1-yl}-1-methyl-2-oxo-1,2-dihydro-1,5-naphthyridine-3-carbonitrile] | 57 | > 240000 | 110 | 110 | > 240000 |  |  |  |
| N#CCCCn1c(=O)c([N+](=O)[O-])c(N2CCN(C(c3ccccc3)c3ccccc3)CC2)c2ncccc21 [Example 183, 4-(4-(4-benzhydrylpiperazin-1-yl)-3-nitro-2-oxo-1,5-naphthyridin-1(2H)-yl)butanenitrile] |  | > 240000 | 52000 | > 240000 | 21000 | 3200 |  |  |
| Cn1c(=O)c(C#N)c(N2CCN(Cc3ccc(O)c(F)c3)CC2)c2nc(Cl)ccc21 [Example 357, 6-chloro-4-{4-[(3-fluoro-4-hydroxyphenyl)methyl]piperazin-1-yl}-1-methyl-2-oxo-1,2-dihydro-1,5-naphthyridine-3-carbonitrile] |  | > 240000 | 28 | 85 | 47000 | 5000 |  |  |
| Cc1ccc2c(n1)c(N1CCN(Cc3cccc(F)c3O)CC1)c(C#N)c(=O)n2C [Example 329, 4-{4-[(3-fluoro-2-hydroxyphenyl)methyl]piperazin-1-yl}-1,6-dimethyl-2-oxo-1,2-dihydro-1,5-naphthyridine-3-carbonitrile] |  | 30000 | 560 | 5600 | 49000 | 470 |  |  |
